Consider five compounds from patent publication US20230114728A1 (Venatorx Pharmaceuticals, Inc., priority 2019, published 2023).

In this assay the target is T1, A. baumannii PBP2 (Acinetobacter baumannii, UniProt D0C8Z9).
T1 construct: made in house
T1 sequence (D0C8Z9 1-672): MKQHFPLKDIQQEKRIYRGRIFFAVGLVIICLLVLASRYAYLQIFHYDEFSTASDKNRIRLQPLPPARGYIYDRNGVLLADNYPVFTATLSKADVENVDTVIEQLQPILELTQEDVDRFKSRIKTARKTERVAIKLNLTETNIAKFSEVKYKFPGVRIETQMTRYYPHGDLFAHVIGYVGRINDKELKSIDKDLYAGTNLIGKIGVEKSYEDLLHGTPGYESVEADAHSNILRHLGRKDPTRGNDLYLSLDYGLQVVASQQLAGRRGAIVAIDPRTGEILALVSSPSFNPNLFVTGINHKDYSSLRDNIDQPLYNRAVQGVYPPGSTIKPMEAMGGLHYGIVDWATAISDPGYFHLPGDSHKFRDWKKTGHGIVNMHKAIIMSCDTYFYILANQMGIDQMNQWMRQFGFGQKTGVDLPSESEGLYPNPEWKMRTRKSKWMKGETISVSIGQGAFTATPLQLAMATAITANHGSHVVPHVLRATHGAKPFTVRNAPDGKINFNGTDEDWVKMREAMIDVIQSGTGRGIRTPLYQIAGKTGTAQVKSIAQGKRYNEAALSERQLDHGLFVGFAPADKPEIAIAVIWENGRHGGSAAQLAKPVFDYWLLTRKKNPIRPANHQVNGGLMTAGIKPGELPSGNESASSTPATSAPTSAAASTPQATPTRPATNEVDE
Nature of the assay: Bocillin-FL fluorescence polarization competition binding assay, A. baumannii PBP2. Particulars: fluorescence polarization competition binding assay using Bocillin-FL; read-out: A. baumannii PBP2 Potency. A digest of the protocol:
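Fluorescence polarization (ex 490/em 520 nm) competition of inhibitors against Bocillin-FL at 0.1 μM, read up to 60 min. Final PBP levels: E. coli PBP3 1.5 μM; A. baumannii PBP2 2.5 μM, PBP3 0.2 μM in Tris pH 8.0/NaCl/glycerol/Tween 20; N. gonorrhoeae PBP2 […] in Hepes pH 8.0/NaCl/glycerol. EC50 = concentration halving PBP-bound Bocillin-FL.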
(Fluorescence polarisation rises when a labelled molecule tumbles more slowly, as on binding a larger partner.)
In the case of `CCN1CCN(C(=O)N[C@@H](C(=O)N[C@H]2Cc3cccc(C(=O)O)c3OB2O)c2c(O)cc(O)cc2F)C(=O)C1=O` (single isomer, unassigned) [Example 182], the EC50 was more than 100 µM. For `CS(=O)(=O)N1CCN(C(=O)N[C@@H](C(=O)N[C@H]2Cc3ccc(F)c(C(=O)O)c3OB2O)c2cc(F)c(O)c(O)c2Cl)C1=O` (single isomer, unassigned) [Example 189], the EC50 is more than 100 µM. On to `O=C(NCCCN1CCN(C(=O)NC(C(=O)N[C@H]2Cc3ccc(F)c(C(=O)O)c3OB2O)c2ncc(O)cc2F)C(=O)C1=O)c1ccc(O)c(O)c1Cl` (stereo partly drawn) [Example 3, (3R)-3-(2-(4-(3-(2-chloro-3,4-dihydroxybenzamido)propyl)-2,3-dioxopiperazine-1-carboxamido)-2-(3-fluoro-5-hydroxypyridin-2-yl)acetamido)-7-fluoro-2-hydroxy-3,4-dihydro-2H-benzo[e][1,2]oxaborinine-8-carboxylic acid], for which the EC50 was more than 100 µM.

For the compound `NCCCN1CCN(C(=O)N[C@@H](C(=O)N[C@H]2Cc3cc(Cl)c(F)c(C(=O)O)c3OB2O)c2c(F)cc(O)c(O)c2Cl)C(=O)C1=O` [Example 190, (R)-3-((R)-2-(4-(3-aminopropyl)-2,3-dioxopiperazine-1-carboxamido)-2-(2-chloro-6-fluoro-3,4-dihydroxyphenyl)acetamido)-6-chloro-7-fluoro-2-hydroxy-3,4-dihydro-2H-benzo[e][1,2]oxaborinine-8-carboxylic acid], the EC50 was more than 100 µM. In the case of `CCN1CCN(C(=O)N[C@@H](C(=O)N[C@H]2Cc3cc(Cl)c(F)c(C(=O)O)c3OB2O)c2c(F)cc(O)c(O)c2Cl)C(=O)C1=O` [Example 191, (R)-6-chloro-3-((R)-2-(2-chloro-6-fluoro-3,4-dihydroxyphenyl)-2-(4-ethyl-2,3-dioxopiperazine-1-carboxamido)acetamido)-7-fluoro-2-hydroxy-3,4-dihydro-2H-benzo[e][1,2]oxaborinine-8-carboxylic acid], the EC50 was in the range of 30 to 100 µM.
